Test results from patent publication US20090227575A1, “7H-PYRROLO[2,3-H]QUINAZOLINE COMPOUNDS, THEIR USE AS mTOR KINASE AND PI3 KINASE INHIBITORS, AND THEIR [sequence]” (Wyeth, priority 2008, published 2009).

Columns and labels:
Format in all cases: biochemical
[1] = biological target: Human mTOR (Homo sapiens, UniProt P42345); experiment: mTOR kinase assay (DELFIA format, purified enzyme); set-up: FLAG; details: read-out: TOR Kinase IC50
[2] = biological target: PI3K-alpha (Homo sapiens, UniProt P42336); experiment: PI3K-alpha fluorescence polarization assay; details: read-out: PI3 Kinase α IC50
Method: (§1) The reaction buffer was 20 mM HEPES, pH 7.5, 2 mM MgCl2, 0.05% CHAPS; and 0.01% βME (added fresh). The Stop/Detection Buffer was 100 mM HEPES, pH 7.5, 4 mM EDTA, 0.05% CHAPS; ATP 20 mM in water; PIP2 (diC8, Echelon, Salt Lake City Utah cat #P-4508) 1 mM in water (MW=856.5). The GST-GRP was 1.75 mg/mL or 1.4 mg/mL in 10% glycerol. The Red detector (TAMRA) was 2.5 μM. Nunc 384-well black polypropylene fluorescent plates were used for PI3K assays.
(§2) The assay is run by placing 5 μL of diluted enzyme per well, then 5 μL of diluted compound (or 9.5 μL enzyme then 0.5 μL compound in DMSO) is added and mixed. Then, 10 μL substrate is added to start the reaction. The samples are incubated 30-60 minutes, then the reaction is stopped by adding 20 μL stop/detector mix. PI3K is diluted with reaction buffer (e.g., 5 μL or 7.5 μL PI3K into 620 μL reaction buffer), and 5 μL of diluted enzyme is used per well. A 5 μL portion of reaction buffer or of drug diluted in buffer (e.g., 4 μL/100 so final DMSO is 1% in reaction) is added to each. Pipetting up and down mixes the samples. Alternatively, the enzyme can be diluted to 1215 μL. In this case 9.8 μL is added per well and 0.2 μL compound is added in DMSO.
(§3) To prepare 1 mL of substrate solution, 955 μL reaction buffer, 40 μL PIP2, and 2.5 μL ATP are mixed. 10 μL of substrate is added to each well to start the reaction. […] The stop/detector mix is prepared by mixing 4 μL Red detector and 1.6 μL or 2.0 μL GST-GRP with 1 mL stop buffer, which results in 10 nM probe and 70 nM GST-GRP. 20 μL of the stop/detector mix is added to each well to stop the reaction. The plates are read after 30-90 minutes keeping the red probe solutions dark. For the zero time point, stop/detector mix is added to the enzyme just before adding substrate. For an extra control, stop/detector mix is added to buffer (no enzyme) and substrate or to just buffer (no substrate). […] The recommended reaction has 0.06 μL per 20 μL (0.015 μg/20 μL) or 0.01125 μg/15 μL or 0.75 μg/mL.
(§4) Plates are read on machines with filters for TAMRA. The units are mP with no enzyme controls reading app 190-220 mP units. Fully active enzyme reduces fluorescence polarization down to 70-100 mP after 30 minutes. An active compound raises the mP values halfway to control or to 120-150 mP units.

[3] = biological target: PI3K-gamma (Homo sapiens, UniProt P48736); experiment: PI3K-gamma fluorescence polarization assay; details: read-out: PI3 Kinase γ IC50
Method: as §1, §2, §3, §4

Chain of PI3K-alpha (P42336 whole entry, species assumed): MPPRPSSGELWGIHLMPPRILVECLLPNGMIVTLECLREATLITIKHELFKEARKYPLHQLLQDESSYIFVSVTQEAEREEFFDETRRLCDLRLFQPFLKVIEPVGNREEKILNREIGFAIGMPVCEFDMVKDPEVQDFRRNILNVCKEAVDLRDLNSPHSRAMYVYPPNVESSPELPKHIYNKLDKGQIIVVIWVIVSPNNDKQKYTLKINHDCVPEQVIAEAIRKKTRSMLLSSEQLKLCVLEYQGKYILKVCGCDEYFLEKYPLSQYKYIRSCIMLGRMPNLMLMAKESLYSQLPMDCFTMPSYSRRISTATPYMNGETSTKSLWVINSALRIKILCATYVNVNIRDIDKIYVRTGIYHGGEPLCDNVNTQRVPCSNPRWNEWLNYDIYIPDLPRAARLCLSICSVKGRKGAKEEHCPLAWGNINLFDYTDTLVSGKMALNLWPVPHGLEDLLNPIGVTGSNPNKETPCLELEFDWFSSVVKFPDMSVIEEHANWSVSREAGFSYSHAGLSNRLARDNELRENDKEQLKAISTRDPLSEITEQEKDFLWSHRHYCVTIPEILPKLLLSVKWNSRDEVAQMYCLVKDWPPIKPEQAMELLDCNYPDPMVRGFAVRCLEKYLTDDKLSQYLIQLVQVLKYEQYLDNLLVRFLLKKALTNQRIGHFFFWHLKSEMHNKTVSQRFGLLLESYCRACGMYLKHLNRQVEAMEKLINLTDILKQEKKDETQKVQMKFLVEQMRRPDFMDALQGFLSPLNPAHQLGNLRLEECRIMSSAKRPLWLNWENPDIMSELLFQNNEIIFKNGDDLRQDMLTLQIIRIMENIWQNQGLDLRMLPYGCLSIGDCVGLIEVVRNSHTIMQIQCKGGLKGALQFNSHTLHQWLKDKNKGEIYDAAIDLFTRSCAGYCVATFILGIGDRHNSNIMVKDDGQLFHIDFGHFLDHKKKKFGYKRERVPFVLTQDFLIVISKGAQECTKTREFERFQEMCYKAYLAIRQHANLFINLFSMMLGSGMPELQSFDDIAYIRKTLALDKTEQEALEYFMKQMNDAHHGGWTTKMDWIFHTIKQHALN
Chain of PI3K-alpha (P27986 whole entry partner, species assumed): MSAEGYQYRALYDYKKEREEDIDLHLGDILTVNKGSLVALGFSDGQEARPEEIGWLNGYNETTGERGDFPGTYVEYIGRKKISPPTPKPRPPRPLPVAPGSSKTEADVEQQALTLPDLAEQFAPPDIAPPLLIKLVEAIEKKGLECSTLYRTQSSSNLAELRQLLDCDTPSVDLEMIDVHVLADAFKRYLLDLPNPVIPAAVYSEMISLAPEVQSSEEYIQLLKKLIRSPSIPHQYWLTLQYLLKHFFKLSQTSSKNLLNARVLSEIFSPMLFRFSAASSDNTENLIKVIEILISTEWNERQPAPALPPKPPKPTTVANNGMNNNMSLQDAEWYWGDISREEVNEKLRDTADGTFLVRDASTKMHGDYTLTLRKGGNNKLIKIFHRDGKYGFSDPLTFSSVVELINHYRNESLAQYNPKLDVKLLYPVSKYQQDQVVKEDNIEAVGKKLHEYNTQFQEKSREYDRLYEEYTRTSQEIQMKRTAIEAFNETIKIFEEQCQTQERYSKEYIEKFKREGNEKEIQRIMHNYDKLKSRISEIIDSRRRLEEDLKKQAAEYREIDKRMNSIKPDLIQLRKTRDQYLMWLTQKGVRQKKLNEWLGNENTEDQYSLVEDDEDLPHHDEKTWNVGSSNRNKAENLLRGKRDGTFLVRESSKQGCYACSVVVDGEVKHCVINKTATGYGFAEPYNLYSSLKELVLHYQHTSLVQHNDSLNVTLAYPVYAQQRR
Chain of PI3K-gamma (P48736 whole entry, species assumed): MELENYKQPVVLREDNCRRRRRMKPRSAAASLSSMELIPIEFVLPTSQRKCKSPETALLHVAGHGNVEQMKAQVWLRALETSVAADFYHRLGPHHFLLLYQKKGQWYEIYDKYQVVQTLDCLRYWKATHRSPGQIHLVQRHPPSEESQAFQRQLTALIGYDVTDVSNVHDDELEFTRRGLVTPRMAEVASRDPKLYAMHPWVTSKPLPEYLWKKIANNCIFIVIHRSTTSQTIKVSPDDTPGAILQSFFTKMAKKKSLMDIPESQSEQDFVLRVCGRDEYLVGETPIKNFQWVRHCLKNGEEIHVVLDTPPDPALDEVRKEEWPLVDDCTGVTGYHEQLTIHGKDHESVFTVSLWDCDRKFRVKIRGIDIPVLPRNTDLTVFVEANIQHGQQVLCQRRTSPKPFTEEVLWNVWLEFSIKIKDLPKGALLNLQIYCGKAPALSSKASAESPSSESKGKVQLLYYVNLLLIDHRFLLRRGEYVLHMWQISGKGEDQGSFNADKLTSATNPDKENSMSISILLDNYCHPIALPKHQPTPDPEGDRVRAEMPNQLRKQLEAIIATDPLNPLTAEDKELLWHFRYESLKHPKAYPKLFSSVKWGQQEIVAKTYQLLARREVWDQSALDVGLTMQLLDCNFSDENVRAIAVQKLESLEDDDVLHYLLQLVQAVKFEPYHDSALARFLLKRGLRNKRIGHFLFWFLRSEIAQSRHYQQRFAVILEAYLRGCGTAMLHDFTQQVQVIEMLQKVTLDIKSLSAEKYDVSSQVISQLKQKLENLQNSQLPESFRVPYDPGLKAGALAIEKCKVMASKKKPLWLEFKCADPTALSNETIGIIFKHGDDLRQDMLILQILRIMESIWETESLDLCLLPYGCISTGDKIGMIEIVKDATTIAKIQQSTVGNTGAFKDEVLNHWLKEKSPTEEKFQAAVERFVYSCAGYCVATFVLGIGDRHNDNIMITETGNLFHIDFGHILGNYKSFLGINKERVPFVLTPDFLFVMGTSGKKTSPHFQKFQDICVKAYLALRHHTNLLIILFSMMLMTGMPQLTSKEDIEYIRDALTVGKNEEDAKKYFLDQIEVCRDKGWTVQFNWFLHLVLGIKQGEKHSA

SMILES	IC50 [1]	IC50 [2]	IC50 [3]
Cn1ccc2c3nc(-c4cccc(S(=O)(=O)NC5CC5)c4)nc(N4CCOCC4)c3ccc21 [Example 56, N-cyclopropyl-3-(7-methyl-4-morpholin-4-yl-7H-pyrrolo[2,3-h]quinazolin-2-yl)benzenesulfonamide]	50 nM	6970 nM	6700 nM
OCc1cccc(-c2nc(N3CCOCC3)c3ccc4[nH]ccc4c3n2)c1 [Example 57]	235 nM	514 nM	3580 nM
Nc1ncc(-c2nc(N3CCOCC3)c3ccc4[nH]ccc4c3n2)cn1 [Example 58, -(4-morpholin-4-yl-7H-pyrrolo[2,3-h]quinazolin-2-yl)pyrimidin-2-amine]	155 nM	102 nM	471 nM
CS(=O)(=O)n1ccc2c3nc(-c4cccc(O)c4)nc(N4CCOCC4)c3ccc21 [Example 59, 3-[7-(methylsulfonyl)-4-morpholin-4-yl-7H-pyrrolo[2,3-h]quinazolin-2-yl]phenol]	2600 nM	63 nM	560 nM
CC(C)(C)OC(=O)Cn1ccc2c3nc(-c4ccc(N)nc4)nc(N4CCOCC4)c3ccc21 [Example 60, tert-butyl [2-(6-aminopyridin-3-yl)-4-morpholin-4-yl-7H-pyrrolo[2,3-h]quinazolin-7-yl]acetate]	1350 nM	775 nM	4890 nM
O=C(Nc1ccncc1)Nc1ccc(-c2nc(N3CCOCC3)c3ccc4c(ccn4S(=O)(=O)C4CCN(C(=O)OCc5ccccc5)CC4)c3n2)cc1 [Example 61, benzyl 4-[(4-morpholin-4-yl-2-{4-[(pyridin-4-ylcarbamoyl)amino]phenyl}-7H-pyrrolo[2,3-h]quinazolin-7-yl)sulfonyl]piperidine-1-carboxylate]	130 nM	384 nM	3490 nM
O=C(Nc1ccncc1)Nc1ccc(-c2nc(N3CCOCC3)c3ccc4c(ccn4S(=O)(=O)C4CCNCC4)c3n2)cc1 [Example 62, 1-{4-[4-morpholin-4-yl-7-(piperidin-4-ylsulfonyl)-7H-pyrrolo[2,3-h]quinazolin-2-yl]phenyl}-3-pyridin-4-ylurea]	28 nM	114 nM	519 nM
CN1CCC(S(=O)(=O)n2ccc3c4nc(-c5ccc(NC(=O)Nc6ccncc6)cc5)nc(N5CCOCC5)c4ccc32)CC1 [Example 63, 1-(4-{7-[(1-methylpiperidin-4-yl)sulfonyl]-4-morpholin-4-yl-7H-pyrrolo[2,3-h]quinazolin-2-yl}phenyl)-3-pyridin-4-ylurea]	67 nM	119 nM	491 nM
CCN1CCC(S(=O)(=O)n2ccc3c4nc(-c5ccc(NC(=O)Nc6ccncc6)cc5)nc(N5CCOCC5)c4ccc32)CC1 [Example 64, 1-(4-{7-[(1-ethylpiperidin-4-yl)sulfonyl]-4-morpholin-4-yl-7H-pyrrolo[2,3-h]quinazolin-2-yl}phenyl)-3-pyridin-4-ylurea]	44 nM	74 nM	313 nM
CC(C)N1CCC(S(=O)(=O)n2ccc3c4nc(-c5ccc(NC(=O)Nc6ccncc6)cc5)nc(N5CCOCC5)c4ccc32)CC1 [Example 65, 1-(4-{7-[(1-isopropylpiperidin-4-yl)sulfonyl]-4-morpholin-4-yl-7H-pyrrolo[2,3-h]quinazolin-2-yl}phenyl)-3-pyridin-4-ylurea]	73 nM	48 nM	300 nM
O=C(OCc1ccccc1)N1CCC(S(=O)(=O)n2ccc3c4nc(-c5cccc(O)c5)nc(N5CCOCC5)c4ccc32)CC1 [Example 66, benzyl 4-{[2-(3-hydroxyphenyl)-4-morpholin-4-yl-7H-pyrrolo[2,3-h]quinazolin-7-yl]sulfonyl}piperidine-1-carboxylate]	2250 nM	245 nM	5750 nM
O=S(=O)(C1CCNCC1)n1ccc2c3nc(-c4cccc(O)c4)nc(N4CCOCC4)c3ccc21 [Example 67, 3-[4-morpholin-4-yl-7-(piperidin-4-ylsulfonyl)-7H-pyrrolo[2,3-h]quinazolin-2-yl]phenol]	670 nM	231 nM	1580 nM
O=S(=O)(c1ccccc1)n1ccc2c3nc(-c4cccc(O)c4)nc(N4CCOCC4)c3ccc21 [Example 69, 3-[4-morpholin-4-yl-7-(phenylsulfonyl)-7H-pyrrolo[2,3-h]quinazolin-2-yl]phenol]	1110 nM	274 nM	1130 nM
O=S(=O)(c1ccccc1)n1ccc2c3nc(-c4cccc(CO)c4)nc(N4CCOCC4)c3ccc21 [Example 70, {3-[4-morpholin-4-yl-7-(phenylsulfonyl)-7H-pyrrolo[2,3-h]quinazolin-2-yl]phenyl}methanol]	5800 nM	168 nM	2070 nM
Nc1ncc(-c2nc(N3CCOCC3)c3ccc4c(ccn4S(=O)(=O)c4ccccc4)c3n2)cn1 [Example 71, 5-[4-morpholin-4-yl-7-(phenylsulfonyl)-7H-pyrrolo[2,3-h]quinazolin-2-yl]pyrimidin-2-amine]	545 nM	52 nM	114 nM
O=S(=O)(c1ccccc1)n1ccc2c3nc(-c4cccc5[nH]ncc45)nc(N4CCOCC4)c3ccc21 [Example 72, 2-(1H-indazol-4-yl)-4-morpholin-4-yl-7-(phenylsulfonyl)-7H-pyrrolo[2,3-h]quinazoline]	3250 nM	4010 nM	5160 nM
CS(=O)(=O)n1ccc2c3nc(-c4cnc(N)nc4)nc(N4CCOCC4)c3ccc21 [Example 73, 5-[7-(methylsulfonyl)-4-morpholin-4-yl-7H-pyrrolo[2,3-h]quinazolin-2-yl]pyrimidin-2-amine]	63 nM	62 nM	198 nM
CS(=O)(=O)n1ccc2c3nc(-c4cccc(CO)c4)nc(N4CCOCC4)c3ccc21 [Example 74, {3-[7-(methylsulfonyl)-4-morpholin-4-yl-7H-pyrrolo[2,3-h]quinazolin-2-yl]phenyl}methanol]	545 nM	212 nM	1190 nM
COCOc1cncc(-c2nc(N3CCOCC3)c3ccc4c(ccn4S(C)(=O)=O)c3n2)c1 [Example 75, 2-[5-(methoxymethoxy)pyridin-3-yl]-7-(methylsulfonyl)-4-morpholin-4-yl-7H-pyrrolo[2,3-h]quinazoline]	16500 nM	> 10000 nM	> 10000 nM
CS(=O)(=O)n1ccc2c3nc(-c4cncc(O)c4)nc(N4CCOCC4)c3ccc21 [Example 76, 5-[7-(methylsulfonyl)-4-morpholin-4-yl-7H-pyrrolo[2,3-h]quinazolin-2-yl]pyridin-3-ol]	130 nM	65 nM	82 nM
COCOc1cncc(-c2nc(N3CCOCC3)c3ccc4c(ccn4C)c3n2)c1 [Example 77, 2-[5-(methoxymethoxy)pyridin-3-yl]-7-methyl-4-morpholin-4-yl-7H-pyrrolo[2,3-h]quinazoline]	525 nM	451 nM	933 nM
Cn1ccc2c3nc(-c4cncc(O)c4)nc(N4CCOCC4)c3ccc21 [Example 78, 5-(7-methyl-4-morpholin-4-yl-7H-pyrrolo[2,3-h]quinazolin-2-yl)pyridin-3-ol]	305 nM	73 nM	390 nM
